{"source": "paper PMC7144022", "about": "“Quinolinecarboxamides Inhibit the Replication of the Bovine Viral Diarrhea Virus by Targeting a Hot Spot for the Inhibition of Pestivirus Replication in the RNA-Dependent RNA Polymerase” (Molecules, 2020)", "key": {"BVDV NADL virus": {"tested_on": "BVDV NADL virus", "test": "CPE-based antiviral assay, BVDV NADL in MDBK cells (MTS/PMS)", "settings": "for EC50: Bovine viral diarrhea virus isolates and strains, MDBK, 72 h; for S.I.: selectivity index, CC50 vs EC50"}, "[1]": {"test": "Cytotoxicity assay, proliferation of exponentially growing MDBK cells (MTS/PMS)", "format": "cell-based, bovine", "settings": "bovine", "description": "Assays were carried out, as described previously."}, "[2]": {"settings": "sheet CSFCII#, potency relative to TO502-2403 (EC50 0.2 µM)"}, "[3]": {"settings": "sheet CSFCI#, potency relative to TO505-6180 (EC50 0.07 µM)"}}, "data": [{"compound": "Cc1ccc(-c2csc(NC(=O)c3cc(-c4ccccc4)nc4ccccc34)n2)cc1", "note": "[CSFC-114, O=C(Nc1nc(cs1)c2ccc(C)cc2)c4cc(nc3ccccc34)c5ccccc5]", "values": [{"measurement": "EC50", "setting": "BVDV NADL virus", "value": 1100, "unit": "nM"}, {"measurement": "S.I.", "setting": "BVDV NADL virus", "value": 91}, {"measurement": "fold increase", "setting": "BVDV NADL virus; [2]", "value": 0.18}, {"measurement": "CC50 at 5 days", "setting": "[1]", "value": "> 100000", "unit": "nM"}]}, {"compound": "Cc1ccc2nc(NC(=O)c3cc[n+]([O-])cc3)sc2c1", "note": "[CSFC-27, [O-][n+]1ccc(cc1)C(=O)Nc1nc2ccc(C)cc2s1]", "values": [{"measurement": "EC50", "setting": "BVDV NADL virus", "value": "> 100000", "unit": "nM"}, {"measurement": "S.I.", "setting": "BVDV NADL virus", "value": 1}, {"measurement": "fold increase", "setting": "BVDV NADL virus; [3]", "value": 0.0007}, {"measurement": "CC50 at 5 days", "setting": "[1]", "value": "> 100000", "unit": "nM"}]}, {"compound": "Cc1c(-c2ccco2)nc2ccccc2c1C(=O)Nc1nc2c(C)cccc2s1", "note": "[CSFC-105, Cc2c(nc1ccccc1c2C(=O)Nc3nc4c(C)cccc4s3)c5ccco5]", "values": [{"measurement": "EC50", "setting": "BVDV NADL virus", "value": 700, "unit": "nM"}, {"measurement": "S.I.", "setting": "BVDV NADL virus", "value": 143}, {"measurement": "fold increase", "setting": "BVDV NADL virus; [2]", "value": 0.29}, {"measurement": "CC50 at 5 days", "setting": "[1]", "value": "> 100000", "unit": "nM"}]}, {"compound": "COc1ccc2nc(NC(=O)c3cc(-c4ccsc4)nc4ccccc34)sc2c1", "note": "[CSFC-82, O=C(c2cc(nc1ccccc12)c3ccsc3)Nc4nc5ccc(cc5s4)OC]", "values": [{"measurement": "EC50", "setting": "BVDV NADL virus", "value": 200, "unit": "nM"}, {"measurement": "S.I.", "setting": "BVDV NADL virus", "value": 500}, {"measurement": "fold increase", "setting": "BVDV NADL virus; [2]", "value": 1.00}, {"measurement": "CC50 at 5 days", "setting": "[1]", "value": "> 100000", "unit": "nM"}]}, {"compound": "COc1ccc(-c2cc(C(=O)Nc3ccn(-c4ccccc4)n3)c3ccccc3n2)cc1", "note": "[CSFC-118, COc1ccc(cc1)c3nc2ccccc2c(c3)C(=O)Nc4ccn(n4)c5ccccc5]", "values": [{"measurement": "EC50", "setting": "BVDV NADL virus", "value": 300, "unit": "nM"}, {"measurement": "S.I.", "setting": "BVDV NADL virus", "value": 333}, {"measurement": "fold increase", "setting": "BVDV NADL virus; [2]", "value": 0.67}, {"measurement": "CC50 at 5 days", "setting": "[1]", "value": "> 100000", "unit": "nM"}]}, {"compound": "O=C(Nc1ccn(-c2ccc(Cl)cc2)n1)c1cc(-c2ccco2)nc2c(F)cccc12", "note": "[CSFC-104, Clc1ccc(cc1)n2ccc(n2)NC(=O)c4cc(nc3c(F)cccc34)c5ccco5]", "values": [{"measurement": "EC50", "setting": "BVDV NADL virus", "value": 200, "unit": "nM"}, {"measurement": "S.I.", "setting": "BVDV NADL virus", "value": 500}, {"measurement": "fold increase", "setting": "BVDV NADL virus; [2]", "value": 1.00}, {"measurement": "CC50 at 5 days", "setting": "[1]", "value": "> 100000", "unit": "nM"}]}, {"compound": "Cc1ccc2nc(NC(=O)c3ccncc3)sc2c1", "note": "[CSFC-22, Cc1ccc2nc(NC(=O)c3ccncc3)sc2c1]", "values": [{"measurement": "EC50", "setting": "BVDV NADL virus", "value": "> 100000", "unit": "nM"}, {"measurement": "S.I.", "setting": "BVDV NADL virus", "value": 1}, {"measurement": "fold increase", "setting": "BVDV NADL virus; [3]", "value": 0.0007}, {"measurement": "CC50 at 5 days", "setting": "[1]", "value": "> 100000", "unit": "nM"}]}, {"compound": "O=C(Nc1ccn(-c2ccccc2F)n1)c1cc(-c2ccccc2)nc2ccccc12", "note": "[CSFC-125, Fc1ccccc1n2ccc(n2)NC(=O)c4cc(nc3ccccc34)c5ccccc5]", "values": [{"measurement": "EC50", "setting": "BVDV NADL virus", "value": 1600, "unit": "nM"}, {"measurement": "S.I.", "setting": "BVDV NADL virus", "value": 63}, {"measurement": "fold increase", "setting": "BVDV NADL virus; [2]", "value": 0.13}, {"measurement": "CC50 at 5 days", "setting": "[1]", "value": "> 100000", "unit": "nM"}]}, {"compound": "Cc1sc(NC(=O)c2cc(-c3ccccc3)nc3ccccc23)nc1-c1ccccc1", "note": "[CSFC-110, O=C(Nc2nc(c1ccccc1)c(C)s2)c4cc(nc3ccccc34)c5ccccc5]", "values": [{"measurement": "EC50", "setting": "BVDV NADL virus", "value": 300, "unit": "nM"}, {"measurement": "S.I.", "setting": "BVDV NADL virus", "value": 333}, {"measurement": "fold increase", "setting": "BVDV NADL virus; [2]", "value": 0.67}, {"measurement": "CC50 at 5 days", "setting": "[1]", "value": "> 100000", "unit": "nM"}]}, {"compound": "Cc1cccc2sc(NC(=O)c3cc(-c4ccccc4F)nc4c(F)cccc34)nc12", "note": "[CSFC-103, Fc1ccccc1c3nc2c(cccc2F)c(c3)C(=O)Nc4nc5c(C)cccc5s4]", "values": [{"measurement": "EC50", "setting": "BVDV NADL virus", "value": 500, "unit": "nM"}, {"measurement": "S.I.", "setting": "BVDV NADL virus", "value": 200}, {"measurement": "fold increase", "setting": "BVDV NADL virus; [2]", "value": 0.40}, {"measurement": "CC50 at 5 days", "setting": "[1]", "value": "> 100000", "unit": "nM"}]}, {"compound": "O=C(Nc1nnc(-c2ccccc2)s1)c1cc(-c2cccs2)nc2ccc(F)cc12", "note": "[CSFC-106, O=C(Nc1nnc(s1)c2ccccc2)c4cc(nc3ccc(F)cc34)c5cccs5]", "values": [{"measurement": "EC50", "setting": "BVDV NADL virus", "value": 2300, "unit": "nM"}, {"measurement": "S.I.", "setting": "BVDV NADL virus", "value": 43}, {"measurement": "fold increase", "setting": "BVDV NADL virus; [2]", "value": 0.09}, {"measurement": "CC50 at 5 days", "setting": "[1]", "value": "> 100000", "unit": "nM"}]}, {"compound": "O=C(Nc1ccn(-c2ccccc2)n1)c1cc(-c2cccs2)nc2ccc(Br)cc12", "note": "[CSFC-122, O=C(Nc1ccn(n1)c2ccccc2)c4cc(nc3ccc(Br)cc34)c5cccs5]", "values": [{"measurement": "EC50", "setting": "BVDV NADL virus", "value": 600, "unit": "nM"}, {"measurement": "S.I.", "setting": "BVDV NADL virus", "value": 167}, {"measurement": "fold increase", "setting": "BVDV NADL virus; [2]", "value": 0.33}, {"measurement": "CC50 at 5 days", "setting": "[1]", "value": "> 100000", "unit": "nM"}]}, {"compound": "Cc1cccc2sc(NC(=O)c3cc(-c4ccco4)nc4ccccc34)nc12", "note": "[CSFC-35, Cc1cccc2sc(nc12)NC(=O)c1cc(nc2ccccc21)c1ccco1]", "values": [{"measurement": "EC50", "setting": "BVDV NADL virus", "value": 300, "unit": "nM"}, {"measurement": "S.I.", "setting": "BVDV NADL virus", "value": 333}, {"measurement": "fold increase", "setting": "BVDV NADL virus; [3]", "value": 0.23}, {"measurement": "CC50 at 5 days", "setting": "[1]", "value": "> 100000", "unit": "nM"}]}, {"compound": "O=C(Nc1nc2cc(Cl)ccc2o1)c1cc(-c2ccccc2)nc2ccccc12", "note": "[CSFC-5, Clc1cc2nc(NC(=O)c3cc(nc4ccccc43)c3ccccc3)oc2cc1]", "values": [{"measurement": "EC50", "setting": "BVDV NADL virus", "value": "> 100000", "unit": "nM"}, {"measurement": "S.I.", "setting": "BVDV NADL virus", "value": 1}, {"measurement": "fold increase", "setting": "BVDV NADL virus; [3]", "value": 0.0007}, {"measurement": "CC50 at 5 days", "setting": "[1]", "value": "> 100000", "unit": "nM"}]}, {"compound": "Cc1noc(C)c1NC(=O)c1cc(-c2ccco2)nc2ccccc12", "note": "[CSFC-37, O=C(Nc1c(C)onc1C)c3cc(nc2ccccc23)c4ccco4]", "values": [{"measurement": "EC50", "setting": "BVDV NADL virus", "value": 34200, "unit": "nM"}, {"measurement": "S.I.", "setting": "BVDV NADL virus", "value": 3}, {"measurement": "fold increase", "setting": "BVDV NADL virus; [2]", "value": 0.00585}, {"measurement": "CC50 at 5 days", "setting": "[1]", "value": "> 100000", "unit": "nM"}]}]}
